{
  "source": "patent US20200397894A1",
  "about": "“COMPOSITIONS AND METHODS FOR TREATING CANCER” (University of Virginia Patent Foundation, priority 2016, published 2020)",
  "molecules": {"B1": {"name": "Wild-type SET8: N-terminal FLAG-tagged Set8 protein encoded by a retrovirus (protein, UniProt Q9NQR1 1-393, looked up)", "N-lysine methyltransferase …": "MGEGGAAAALVAAAAAAAAAAAAVVAGQRRRRLGRRARCHGPGRAAGGKMSKPCAVEAAAAAVAATAPGPEMVERRGPGRPRTDGENVFTGQSKIYSYMSPNKCSGMRFPLQEENSVTHHEVKCQGKPLAGIYRKREEKRNAGNAVRSAMKSEEQKIKDARKGPLVPFPNQKSEAAEPPKTPPSSCDSTNAAIAKQALKKPIKGKQAPRKKAQGKTQQNRKLTDFYPVRRSSRKSKAELQSEERKRIDELIESGKEEGMKIDLIDGKGRGVIATKQFSRGDFVVEYHGDLIEITDAKKREALYAQDPSTGCYMYYFQYLSKTYCVDATRETNRLGRLINHSKCGNCQTKLHDIDGVPHLILIASRDIAAGEELLYDYGDRSKASIEAHPWLKH", "modifications": "N-terminal FLAG tag", "notes": "N-terminal FLAG-tagged Set8 protein encoded by a retrovirus"}, "B2": {"name": "Wild-type CDT1: wild-type CDT1 ectopically expressed from retrovirus (protein, UniProt Q9H211 1-546, looked up)", "DNA replication factor Cdt1": "MEQRRVTDFFARRRPGPPRIAPPKLACRTPSPARPALRAPASATSGSRKRARPPAAPGRDQARPPARRRLRLSVDEVSSPSTPEAPDIPACPSPGQKIKKSTPAAGQPPHLTSAQDQDTISELASCLQRARELGARVRALKASAQDAGESCTPEAEGRPEEPCGEKAPAYQRFHALAQPGLPGLVLPYKYQVLAEMFRSMDTIVGMLHNRSETPTFAKVQRGVQDMMRRRFEECNVGQIKTVYPASYRFRQERSVPTFKDGTRRSDYQLTIEPLLEQEADGAAPQLTASRLLQRRQIFSQKLVEHVKEHHKAFLASLSPAMVVPEDQLTRWHPRFNVDEVPDIEPAALPQPPATEKLTTAQEVLARARNLISPRMEKALSQLALRSAAPSSPGSPRPALPATPPATPPAASPSALKGVSQDLLERIRAKEAQKQLAQMTRCPEQEQRLQRLERLPELARVLRSVFVSERKPALSMEVACARMVGSCCTIMSPGEMEKHLLLLSELLPDWLSLHRIRTDTYVKLDKAADLAHITARLAHQTRAEEGL"}},
  "key": {"DM331 xenografts": {"system": "DM331 xenografts", "experiment": "Melanoma flank xenograft in nude mice", "assay_type": "in vivo", "conditions": "vs. vehicle; PLX4720 in rodent diet 417 mg/kg", "experimental": "All animal experiments were performed after approval of animal protocols by the Animal Care and Use Committee (ACUC) of the University of Virginia. Animals were housed and handled in accordance with the guidelines of the ACUC of the University of Virginia. The effect of pevonedistat on melanoma growth was tested in flank xenograft models. Foxn1^nu (20-25 g body weight, 4-5 weeks old females) athymic nude immune-deficient mice (Harlan Laboratories, now Envigo, Indianapolis, Ind., United States of America) were used in this study. Pevonedistat was dissolved in sterile 10% DMSO containing PBS (stock 1 mM), filtered, and stored in −20° C. until use. DM93, VMM39, SLM2, DM331, or SK-MEL-24 (2×10^6) melanoma cells were implanted in both flanks of immune-deficient mice (n=12 mice per group) and tumor growth was monitored until they grow to an average volume of 150-200 mm^3, and mice were randomized into groups for treatment. Animals were administered 0.2 mL pevonedistat solution (30 or 60 mg/kg body weight as indicated) intraperitoneally on a schedule of two cycles of five-day treatment followed by five treatment-free days, for 3 weeks, or more as indicated. Control animals were treated with an equal volume of sterile vehicle (10% DMSO in PBS). Where indicated, mice received control rodent diet, or rodent diet with 417 mg/kg PLX4720 (Research Diets, Inc. New Brunswick, N.J., United States of America). Tumors were measured with an electronic caliper every other day for 3 weeks post-drug injection. Animal weight was recorded once a week to detect any weight loss due to the toxicity of drug treatment or tumor burden. At the end of the treatment, animals were euthanized and tumors harvested for further processing. The results shown are mean tumor volumes±s.e.m; *p<0.05, **p<0.01, ***p<0.001."}, "DM93 cells": {"system": "DM93 cells", "experiment": "Cell cycle distribution and rereplication by propidium iodide staining and FACS", "assay_type": "cell-based, human", "experimental": "The effects of pevonedistat, vemurafenib, and/or silencing of various cell cycle-associated proteins by siRNA on cell cycle distribution and rereplication were assessed by propidium iodide staining and flow cytometry of asynchronous melanoma cultures. Synchronization of cells was not employed to avoid bias and to be able to measure the impact of these perturbations on proliferating cancer cells. […] Cells were washed with cold PBS, harvested, and fixed in 70% (v/v) ethanol. Cells were subsequently treated with 20 μg of DNase-free RNase and stained with propidium iodide according to instructions of the manufacturer. Samples were analyzed on a FACSCAN™ (Becton, Dickinson and Company, Franklin Lakes, N.J., United States of America) and G0-G1, S, and G2-M fractions were segmented, and apoptotic (sub-G1 DNA content) and rereplicating (>G2/M DNA content) fractions were determined using FLOWJO® (FLOWJO, LLC, Ashland, Oreg., United States of America) and ModFit (Verity Software House, Topsham, Me., United States of America) software."}, "[1]": {"system": "DM331 and SK-MEL-24 cells from PLX4720-resistant tumors", "experiment": "In vitro sensitivity of cells extracted ex vivo from PLX4720-resistant tumors", "assay_type": "cell-based, human", "conditions": "DM331 and SK-MEL-24 cells extracted ex vivo", "experimental": "Proliferation and viability of cultured cells was measured by CELLTITER96® Non-radioactive Cell Proliferation Assay (Promega Corporation; Madison, Wis., United States of America). Briefly, various wild type and mutant BRAF melanoma cells were seeded in 96 well plates and treated with pevonedistat, vemurafenib, or the combination pevonedistat and vemurafenib at various concentrations. Control cells were treated with DMSO. 96 hours following treatment, cells were stained with the dye solution according to the manufacturer's protocol. Absorbance was recorded at 570 nm and growth curves were established. […] Cells were counted every 24 hours using a COUNTESS™ Automated Cell Counter (INVITROGEN™, Carlsbad, Calif., United States of America), and harvested at the indicated times for PI staining and FACS analysis (cell cycle profile) or for immunoblotting.\nThe effects of pevonedistat, vemurafenib, and/or silencing of various cell cycle-associated proteins by siRNA on cell cycle distribution and rereplication were assessed by propidium iodide staining and flow cytometry of asynchronous melanoma cultures. […]"}, "VMM39 cells": {"system": "VMM39 cells", "experiment": "Rereplication by propidium iodide staining and FACS", "assay_type": "cell-based, human", "conditions": "retroviral overexpression of SET8 and/or p21 species", "experimental": "The effects of pevonedistat, vemurafenib, and/or silencing of various cell cycle-associated proteins by siRNA on cell cycle distribution and rereplication were assessed by propidium iodide staining and flow cytometry of asynchronous melanoma cultures. Synchronization of cells was not employed to avoid bias and to be able to measure the impact of these perturbations on proliferating cancer cells. Briefly, asynchronous melanoma cell lines were treated with pevonedistat or vemurafenib, or transfected with si-CDT1, si-CDT2, si-SET8, si-p21, sigeminin, si-EMI1, or si-GL2 for a time ranging from 24 to 96 hours. Cells were washed with cold PBS, harvested, and fixed in 70% (v/v) ethanol. Cells were subsequently treated with 20 μg of DNase-free RNase and stained with propidium iodide according to instructions of the manufacturer. Samples were analyzed on a FACSCAN™ (Becton, Dickinson and Company, Franklin Lakes, N.J., United States of America) and G0-G1, S, and G2-M fractions were segmented, and apoptotic (sub-G1 DNA content) and rereplicating (>G2/M DNA content) fractions were determined using FLOWJO® (FLOWJO, LLC, Ashland, Oreg., United States of America) and ModFit (Verity Software House, Topsham, Me., United States of America) software."}},
  "data": [
    {"molecule": "CCCS(=O)(=O)Nc1ccc(F)c(C(=O)c2c[nH]c3ncc(Cl)cc23)c1F", "note": "[PLX4720]", "values": [
      {"measurement": "growth of DM331 xenografts", "setting": "DM331 xenografts", "result": "inhibited"}
    ]},
    {"molecule": "CCCS(=O)(=O)Nc1ccc(F)c(C(=O)c2c[nH]c3ncc(-c4ccc(Cl)cc4)cc23)c1F", "note": "[vemurafenib, N-(3-(5-(4-chlorophenyl)-1H-pyrrolo[2,3-b]pyridine-3-carbonyl)-2,4-difluorophenyl)propane-1-sulfonamide]", "values": [
      {"measurement": "cells undergoing pevonedistat-induced rereplication after vemurafenib pretreatment", "setting": "DM93 cells; DM93, pretreatment with vemurafenib for 24 hours, then 1 μM pevonedistat 48 hours", "result": 16, "unit": "%"},
      {"measurement": "effect on cell cycle", "setting": "DM93 cells; DM93 cells", "result": "robust G1 growth arrest and complete depletion of S-phase cells"},
      {"measurement": "sensitivity in vitro of cells from PLX4720-resistant tumors", "setting": "[1]", "result": "remained insensitive"}
    ]},
    {"molecule": "B1", "values": [
      {"measurement": "Percent Rereplication in DM93", "setting": "DM93 cells; retroviral overexpression of SET8 and/or p21 species", "result": 3.87, "unit": "%"},
      {"measurement": "Percent Rereplication in VMM39", "setting": "VMM39 cells", "result": 4.98, "unit": "%"}
    ]},
    {"molecule": "B2", "values": [
      {"measurement": "Percent Rereplication", "setting": "DM93 cells; retroviral overexpression of CDT1 species, DM93 per text", "result": 51.4, "unit": "%"}
    ]}
  ]
}
